Broadly, the IC50 is the concentration at which inhibition is half-maximal.

Chain of Proto-oncogene tyrosine-protein kinase Src (P12931 2-536 limits assumed): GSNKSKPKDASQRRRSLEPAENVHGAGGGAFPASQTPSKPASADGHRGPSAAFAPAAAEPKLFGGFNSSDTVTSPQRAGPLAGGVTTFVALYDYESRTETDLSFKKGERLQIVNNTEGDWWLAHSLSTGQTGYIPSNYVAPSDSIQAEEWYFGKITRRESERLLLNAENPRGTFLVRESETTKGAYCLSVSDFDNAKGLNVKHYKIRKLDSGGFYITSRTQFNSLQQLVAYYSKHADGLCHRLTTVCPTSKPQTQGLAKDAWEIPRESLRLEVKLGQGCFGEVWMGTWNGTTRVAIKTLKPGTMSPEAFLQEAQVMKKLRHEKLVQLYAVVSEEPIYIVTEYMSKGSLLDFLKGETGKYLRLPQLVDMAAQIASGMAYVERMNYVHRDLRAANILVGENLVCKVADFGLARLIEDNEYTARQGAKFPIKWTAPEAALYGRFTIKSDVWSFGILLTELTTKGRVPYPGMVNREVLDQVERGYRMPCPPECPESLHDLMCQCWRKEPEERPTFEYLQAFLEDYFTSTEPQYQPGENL

The first test addresses Proto-oncogene tyrosine-protein kinase Src (Homo sapiens, UniProt P12931). As to the kind of experiment: Inhibition of recombinant human His-tagged full length SRC expressed in baculovirus expression system using tyrosine-2 peptide as substrate incubated for 1 hr by Z'-LYTE assay.
For the compound `C=CC(=O)Nc1ccccc1Nc1nc(Nc2ccc(N3CCN(C)CC3)cc2)ncc1Cl`, the IC50 was 4 nM.
Consider `C=CC(=O)Nc1ccccc1Nc1nc(Nc2ccc(N3CCN(C)CC3)cc2)ncc1-c1ccc(C(C)=O)cc1`, for which the IC50 was 6 nM.
The same measure, in the same setting: to `C=CC(=O)Nc1ccccc1Nc1nc(Nc2ccc(N3CCN(C)CC3)cc2)ncc1OCc1ccc(Oc2ccccc2)cc1` belongs 6 nM; to `C=CC(=O)Nc1ccccc1Nc1nc(Nc2ccc(N3CCN(C)CC3)cc2)ncc1-c1ccc(OC)nc1`, 6 nM; to `C=CC(=O)Nc1ccccc1Nc1nc(Nc2ccc(N3CCN(C)CC3)cc2)ncc1-c1ccoc1`, 2 nM.
For `C=CC(=O)Nc1ccccc1Nc1nc(Nc2ccc(N3CCN(C)CC3)cc2)ncc1OCc1c(C)cccc1Cl`, the IC50 worked out at 3 nM.
Consider `C=CC(=O)Nc1ccccc1Nc1nc(Nc2ccc(N3CCN(C)CC3)cc2)ncc1C(=O)Nc1ccc(Oc2ccccc2)cc1`, for which the 50% inhibitory concentration (IC50) was over 3330 nM.
For `C=CC(=O)Nc1ccccc1Nc1nc(Nc2ccc(N3CCN(C)CC3)cc2)ncc1-c1cccs1`, the IC50 is 3 nM.
As to `C=CC(=O)Nc1ccccc1Nc1nc(Nc2ccc(N3CCC(N4CCN(C)CC4)CC3)cc2)ncc1C(=O)Nc1c(C)cccc1Cl`, the IC50 was over 10000 nM.
In the case of `C=CC(=O)Nc1ccccc1Nc1nc(Nc2ccc(N3CCN(C)CC3)cc2)ncc1-c1ccc(Oc2ccccc2)cc1`, the half-inhibitory concentration (IC50) was found to be 5 nM.
Still for that read-out and setting: to `C=CC(=O)Nc1ccccc1Nc1nc(Nc2ccc(N3CCN(C)CC3)cc2)ncc1OCc1ccc(C)cc1` belongs 5 nM.

In the next test the target is Fibroblast growth factor receptor 1 (Homo sapiens, UniProt P11362). As to the kind of experiment: Inhibition of recombinant human His-tagged FGFR1 (308 to 731 residues) expressed in baculovirus expression system using tyrosine-4 peptide as substrate incubated for 1 hr by Z'-LYTE assay.
Chain of Fibroblast growth factor receptor 1 (P11362 whole entry, the tested form may be a part): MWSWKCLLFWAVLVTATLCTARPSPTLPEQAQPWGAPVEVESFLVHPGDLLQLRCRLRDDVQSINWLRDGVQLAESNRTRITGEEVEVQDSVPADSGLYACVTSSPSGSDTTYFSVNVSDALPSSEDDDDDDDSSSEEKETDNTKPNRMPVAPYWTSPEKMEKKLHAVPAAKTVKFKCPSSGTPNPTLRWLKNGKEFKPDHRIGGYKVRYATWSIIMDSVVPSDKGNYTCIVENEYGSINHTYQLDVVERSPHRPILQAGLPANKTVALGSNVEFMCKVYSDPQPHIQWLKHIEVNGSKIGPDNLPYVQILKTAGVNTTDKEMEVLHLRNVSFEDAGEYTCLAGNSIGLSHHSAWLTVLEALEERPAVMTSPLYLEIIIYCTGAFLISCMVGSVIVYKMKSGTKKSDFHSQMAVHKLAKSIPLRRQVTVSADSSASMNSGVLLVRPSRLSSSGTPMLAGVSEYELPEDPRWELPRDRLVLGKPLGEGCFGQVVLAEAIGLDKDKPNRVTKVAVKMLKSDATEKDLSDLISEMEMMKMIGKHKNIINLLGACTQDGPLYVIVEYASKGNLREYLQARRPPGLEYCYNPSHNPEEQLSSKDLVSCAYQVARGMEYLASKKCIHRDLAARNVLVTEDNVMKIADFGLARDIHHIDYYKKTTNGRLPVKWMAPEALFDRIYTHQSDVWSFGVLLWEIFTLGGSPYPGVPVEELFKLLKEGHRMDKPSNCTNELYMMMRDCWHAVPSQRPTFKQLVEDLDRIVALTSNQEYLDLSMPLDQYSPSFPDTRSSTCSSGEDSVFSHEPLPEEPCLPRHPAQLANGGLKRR
For the compound `C=CC(=O)Nc1ccccc1Nc1nc(Nc2ccc(N3CCN(C)CC3)cc2)ncc1Cl`, the 50% inhibitory concentration (IC50) turned out to be 54 nM.
As for `C=CC(=O)Nc1ccccc1Nc1nc(Nc2ccc(N3CCN(C)CC3)cc2)ncc1C(=O)Nc1c(C)cc(C)cc1Cl`, the half-inhibitory concentration (IC50) is over 3330 nM.
On the same count and under the same terms, to `C=CC(=O)Nc1ccccc1Nc1nc(Nc2ccc(N3CCN(C)CC3)cc2)ncc1C(=O)Nc1c(Cl)c(OC)cc(OC)c1Cl` belongs 391 nM.
On to `C=CC(=O)Nc1ccccc1Nc1nc(Nc2ccc(N3CCN(C)CC3)cc2)ncc1-c1ccc(C(C)=O)cc1`, for which the IC50 was found to be 72 nM.
As to `C=CC(=O)Nc1ccccc1Nc1nc(Nc2ccc(N3CCN(C)CC3)cc2)ncc1OCc1ccc(Oc2ccccc2)cc1`, the IC50 is 1050 nM.
For `C=CC(=O)Nc1ccccc1Nc1nc(Nc2ccc(N3CCN(C)CC3)cc2)ncc1C(=O)Nc1c(C)cc(Cl)cc1Cl`, the IC50 was over 10000 nM.
Take `C=CC(=O)Nc1ccccc1Nc1nc(Nc2ccc(N3CCN(C)CC3)cc2)ncc1-c1ccc(OC)nc1`: the IC50 was found to be 20 nM.
`C=CC(=O)Nc1ccccc1Nc1nc(Nc2ccc(N3CCN(C)CC3)cc2)ncc1-c1ccoc1`: the IC50 turned out to be 12 nM.
Same read-out and setting: to `C=CC(=O)Nc1ccccc1Nc1nc(Nc2ccc(N3CCN(C)CC3)cc2)ncc1C(=O)Nc1ccccc1CC` belongs over 10000 nM; to `C=CC(=O)Nc1ccccc1Nc1nc(Nc2ccc(N3CCN(C)CC3)cc2)ncc1C(=O)Nc1cc(OC)c(OC)cc1C`, 6710 nM; to `C=CC(=O)Nc1ccccc1Nc1nc(Nc2ccc(N3CCN(C)CC3)cc2)ncc1OCc1c(C)cccc1Cl`, 373 nM.
The same measure, in the same setting: then `C=CC(=O)Nc1ccccc1Nc1nc(Nc2ccc(N3CCN(C)CC3)cc2)ncc1C(=O)Nc1ccc(Oc2ccccc2)cc1`, with over 10000 nM.
For `C=CC(=O)Nc1ccccc1Nc1nc(Nc2ccc(N3CCN(C)CC3)cc2)ncc1C(=O)Nc1c(C)cc(C#N)cc1Cl`, the IC50 is over 10000 nM.
For `C=CC(=O)Nc1ccccc1Nc1nc(Nc2ccc(N3CCN(C)CC3)cc2)ncc1-c1cccs1`, the half-maximal inhibitory concentration (IC50) came to 17 nM.
Turning to `C=CC(=O)Nc1ccccc1Nc1nc(Nc2ccc(N3CCN(C)CC3)cc2)ncc1C(=O)Nc1cc(C)cc(Cl)c1`, the 50% inhibitory concentration (IC50) is over 10000 nM.
Still for that read-out and setting: to `C=CC(=O)Nc1ccccc1Nc1nc(Nc2ccc(N3CCN(C)CC3)cc2)ncc1-c1ccc(Oc2ccccc2)cc1` belongs 89 nM; to `C=CC(=O)Nc1ccccc1Nc1nc(Nc2ccc(N3CCN(C)CC3)cc2)ncc1OCc1ccc(C)cc1`, 119 nM.

The target of a further test is T1, Mitogen-activated protein kinase kinase kinase 7 (Homo sapiens, UniProt O43318).
T1 sequence (O43318 whole entry): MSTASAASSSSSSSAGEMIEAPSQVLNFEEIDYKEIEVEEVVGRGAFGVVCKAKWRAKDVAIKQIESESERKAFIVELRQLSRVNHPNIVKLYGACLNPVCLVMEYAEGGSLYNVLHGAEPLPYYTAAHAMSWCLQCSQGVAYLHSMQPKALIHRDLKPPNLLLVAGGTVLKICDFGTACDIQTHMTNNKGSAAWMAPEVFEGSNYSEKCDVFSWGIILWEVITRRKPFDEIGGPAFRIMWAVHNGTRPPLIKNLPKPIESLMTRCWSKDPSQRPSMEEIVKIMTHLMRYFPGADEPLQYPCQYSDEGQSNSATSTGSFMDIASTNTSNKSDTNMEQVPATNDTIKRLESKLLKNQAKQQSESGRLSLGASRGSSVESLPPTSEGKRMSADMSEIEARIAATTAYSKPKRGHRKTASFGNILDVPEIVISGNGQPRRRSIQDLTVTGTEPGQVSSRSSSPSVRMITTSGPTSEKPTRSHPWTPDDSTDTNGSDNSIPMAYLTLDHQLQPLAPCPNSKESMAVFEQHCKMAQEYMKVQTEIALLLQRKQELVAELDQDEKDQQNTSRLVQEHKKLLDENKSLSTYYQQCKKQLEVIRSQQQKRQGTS
Put plainly: Inhibition of tracer 222 binding to recombinant human His-tagged TAK1 (437 to 504 residues) expressed in baculovirus expression system […] incubated for 60 mins by Lanthascreen assay. (In TR-FRET formats the signal depends on donor and acceptor labels being close together.)
On to `C=CC(=O)Nc1ccccc1Nc1nc(Nc2ccc(N3CCN(C)CC3)cc2)ncc1-c1ccc(C(C)=O)cc1`, for which the IC50 worked out at 1490 nM.
Consider `C=CC(=O)Nc1ccccc1Nc1nc(Nc2ccc(N3CCN(C)CC3)cc2)ncc1-c1ccc(OC)nc1`, for which the 50% inhibitory concentration (IC50) stood at 1890 nM.
The same measure, in the same setting: then `C=CC(=O)Nc1ccccc1Nc1nc(Nc2ccc(N3CCN(C)CC3)cc2)ncc1-c1ccoc1`, with 224 nM; and `C=CC(=O)Nc1ccccc1Nc1nc(Nc2ccc(N3CCN(C)CC3)cc2)ncc1-c1cccs1`, with 543 nM.
On the same count and under the same terms, then `C=CC(=O)Nc1ccccc1Nc1nc(Nc2ccc(N3CCN(C)CC3)cc2)ncc1-c1ccc(Oc2ccccc2)cc1`, with 5460 nM.

(Values after ChEMBL document CHEMBL4354843, “Structure-Based Design of a Potent and Selective Covalent Inhibitor for SRC Kinase That Targets a P-Loop Cysteine” (J Med Chem, 2020).)
